# Experimental data as given in patent publication US6737383B1, “Herbicidal oxadiazolidines” (priority 1999, dated 2004).
# Columns and labels:
# cocklebur = test: Test B pre/postemergence cocklebur; assay type: in vivo, Xanthium strumarium
# Summary of the method: (§1)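 Test chemicals in a non-phytotoxic solvent mixture with surfactant were sprayed preemergence onto planted seeds and postemergence onto plants 2 to 18 cm tall (1- to 4-leaf stage). After twelve to sixteen days in a greenhouse, injury was visually rated against untreated controls from 0 (no effect) to 10 (complete control).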
# soybean = test: Test B pre/postemergence soybean; assay type: in vivo, Glycine max
# Summary of the method: as §1
# pigweed = test: Test B pre/postemergence pigweed; assay type: in vivo, Amaranthus retroflexus
# Summary of the method: as §1
# sugar beet = test: Test B pre/postemergence sugar beet; assay type: in vivo, Beta vulgaris
# Summary of the method: as §1
# crabgrass = test: Test B pre/postemergence crabgrass; assay type: in vivo, Digitaria sanguinalis
# Summary of the method: as §1
# bedstraw = test: Test B pre/postemergence bedstraw; assay type: in vivo, Galium aparine; details: Rate 250 g/ha, Postemergence; scale of 0 to 10 where 0 is no effect and 10 is complete control
# Summary of the method: as §1
# rape = test: Test B pre/postemergence rape; assay type: in vivo, Brassica napus
# Summary of the method: as §1
# wheat = test: Test B pre/postemergence wheat; assay type: in vivo, Triticum aestivum
# Summary of the method: as §1
# blackgrass = test: Test B pre/postemergence blackgrass; assay type: in vivo, Alopecurus myosuroides
# Summary of the method: as §1
# morningglory = test: Test B pre/postemergence morningglory; assay type: in vivo, Ipomoea hederacea
# Summary of the method: as §1
# corn = test: Test B pre/postemergence corn; assay type: in vivo, Zea mays
# Summary of the method: as §1
# wild oat = test: Test B pre/postemergence wild oat; assay type: in vivo, Avena fatua
# Summary of the method: as §1
# giant foxtail = test: Test B pre/postemergence giant foxtail; assay type: in vivo, Setaria faberii
# Summary of the method: as §1
# velvetleaf = test: Test B pre/postemergence velvetleaf; assay type: in vivo, Abutilon theophrasti
# Summary of the method: as §1
# surinam grass = test: Test B pre/postemergence surinam grass; assay type: in vivo, Brachiaria decumbens
# Summary of the method: as §1
# purple nutsedge = test: Test B pre/postemergence purple nutsedge; assay type: in vivo, Cyperus rotundus
# Summary of the method: as §1
# [1] = Postemergence, Rate 62 g/ha, scale of 0 to 10, 0 is no effect, 10 is complete control
# [2] = Postemergence, Rate 125 g/ha, scale 0 to 10, 0 is no effect, 10 is complete control
# [3] = Postemergence, Rate 500 g/ha, scale 0 to 10, 0 is no effect, 10 is complete control
# [4] = Preemergence, Rate 62 g/ha, scale of 0 to 10 where 0 is no effect and 10 is complete control
# [5] = Preemergence, Rate 125 g/ha, scale 0 to 10, 0 is no effect, 10 is complete control
# [6] = Preemergence, Rate 500 g/ha, scale of 0 to 10 where 0 is no effect and 10 is complete control
# [7] = Rate 250 g/ha, Postemergence, scale of 0 to 10 where 0 is no effect and 10 is complete control
smiles,measurement,setting,value
CCC(=O)Cn1c(=O)on(C(=O)N(c2ccc(F)cc2F)C(C)C)c1=O [Compound 524],Cocklebur plant response rating,cocklebur; [1],0
same,Cocklebur plant response rating,cocklebur; [2],0
same,"Plant response rating, Cocklebur",cocklebur; [3],3
same,"Plant response rating, Cocklebur",cocklebur; [4],0
same,Cocklebur plant response rating,cocklebur; [5],0
same,Cocklebur plant response rating (0 to 10 scale),"cocklebur; Preemergence, Rate 250 g/ha",0
same,Cocklebur plant response rating,cocklebur; [6],2
same,"Plant response rating, Cocklebur",cocklebur; [7],0
same,Soybean plant response rating,soybean; [1],3
same,"Plant response rating, Soybean",soybean; [3],4
same,"Plant response rating, Soybean",soybean; [4],0
same,Soybean plant response rating,soybean; [5],0
same,Soybean plant response rating (0 to 10 scale),"soybean; Preemergence, Rate 250 g/ha",0
same,Soybean plant response rating,soybean; [6],0
same,"Plant response rating, Soybean",soybean; [7],3
same,Redroot pigweed plant response rating,pigweed; [1],0
same,Redroot pigweed plant response rating,pigweed; [2],0
same,"Plant response rating, Redroot pigweed",pigweed; [3],0
same,"Plant response rating, Redroot pigweed",pigweed; [4],8
same,Redroot pigweed plant response rating,pigweed; [5],8
same,Redroot pigweed plant response rating (0 to 10 scale),"pigweed; Preemergence, Rate 250 g/ha",8
same,"Plant response rating, Redroot pigweed",pigweed; [7],0
same,Sugarbeets plant response rating,sugar beet; [1],0
same,Sugarbeets plant response rating,sugar beet; [2],0
same,"Plant response rating, Sugarbeets",sugar beet; [3],0
same,"Plant response rating, Sugarbeets",sugar beet; [4],0
same,Sugarbeets plant response rating,sugar beet; [5],3
same,Sugarbeets plant response rating (0 to 10 scale),"sugar beet; Preemergence, Rate 250 g/ha",6
same,"Plant response rating, Sugarbeets",sugar beet; [7],0
same,Crabgrass plant response rating,crabgrass; [1],3
same,Crabgrass plant response rating,crabgrass; [2],8
same,"Plant response rating, Crabgrass",crabgrass; [3],9
same,"Plant response rating, Crabgrass",crabgrass; [4],9
same,Crabgrass plant response rating,crabgrass; [5],10
same,Crabgrass plant response rating (0 to 10 scale),"crabgrass; Preemergence, Rate 250 g/ha",9
same,Crabgrass plant response rating,crabgrass; [6],10
same,"Plant response rating, Crabgrass",crabgrass; [7],8
same,"Plant response rating, Bedstraw",bedstraw,9
same,Rape plant response rating,rape; [1],0
same,Rape plant response rating,rape; [2],0
same,"Plant response rating, Rape",rape; [3],3
same,"Plant response rating, Rape",rape; [4],2
same,Rape plant response rating,rape; [5],2
same,Rape plant response rating (0 to 10 scale),"rape; Preemergence, Rate 250 g/ha",7
same,"Plant response rating, Rape",rape; [7],0
same,Wheat plant response rating,wheat; [1],0
same,Wheat plant response rating,wheat; [2],0
same,"Plant response rating, Wheat",wheat; [3],5
same,"Plant response rating, Wheat",wheat; [4],0
same,Wheat plant response rating,wheat; [5],5
same,Wheat plant response rating (0 to 10 scale),"wheat; Preemergence, Rate 250 g/ha",7
same,"Plant response rating, Wheat",wheat; [7],0
same,Blackgrass plant response rating,blackgrass; [1],0
same,Blackgrass plant response rating,blackgrass; [2],2
same,"Plant response rating, Blackgrass",blackgrass; [3],8
same,"Plant response rating, Blackgrass",blackgrass; [4],4
same,Blackgrass plant response rating,blackgrass; [5],4
same,Blackgrass plant response rating (0 to 10 scale),"blackgrass; Preemergence, Rate 250 g/ha",4
same,"Plant response rating, Blackgrass",blackgrass; [7],9
same,Morningglory plant response rating,morningglory; [1],0
same,Morningglory plant response rating,morningglory; [2],2
same,"Plant response rating, Morningglory",morningglory; [3],2
same,"Plant response rating, Morningglory",morningglory; [4],0
same,Morningglory plant response rating,morningglory; [5],0
same,Morningglory plant response rating (0 to 10 scale),"morningglory; Preemergence, Rate 250 g/ha",2
same,Morningglory plant response rating,morningglory; [6],2
same,"Plant response rating, Morningglory",morningglory; [7],2
same,Corn plant response rating,corn; [1],0
same,Corn plant response rating,corn; [2],2
same,"Plant response rating, Corn",corn; [3],5
same,"Plant response rating, Corn",corn; [4],0
same,Corn plant response rating,corn; [5],0
same,Corn plant response rating (0 to 10 scale),"corn; Preemergence, Rate 250 g/ha",7
same,Corn plant response rating,corn; [6],9
same,"Plant response rating, Corn",corn; [7],3
same,Wild oats plant response rating,wild oat; [1],0
same,Wild oats plant response rating,wild oat; [2],0
same,"Plant response rating, Wild oats",wild oat; [3],5
same,"Plant response rating, Wild oats",wild oat; [4],7
same,Wild oats plant response rating,wild oat; [5],9
same,Wild oats plant response rating (0 to 10 scale),"wild oat; Preemergence, Rate 250 g/ha",8
same,"Plant response rating, Wild oats",wild oat; [7],0
same,Giant foxtail plant response rating,giant foxtail; [1],4
same,Giant foxtail plant response rating,giant foxtail; [2],8
same,"Plant response rating, Giant foxtail",giant foxtail; [3],9
same,"Plant response rating, Giant foxtail",giant foxtail; [4],9
same,Giant foxtail plant response rating,giant foxtail; [5],9
same,Giant foxtail plant response rating (0 to 10 scale),"giant foxtail; Preemergence, Rate 250 g/ha",9
same,Giant foxtail plant response rating,giant foxtail; [6],10
same,"Plant response rating, Giant foxtail",giant foxtail; [7],8
same,Velvetleaf plant response rating,velvetleaf; [1],0
same,Velvetleaf plant response rating,velvetleaf; [2],0
same,"Plant response rating, Velvetleaf",velvetleaf; [3],6
same,"Plant response rating, Velvetleaf",velvetleaf; [4],0
same,Velvetleaf plant response rating,velvetleaf; [5],3
same,Velvetleaf plant response rating (0 to 10 scale),"velvetleaf; Preemergence, Rate 250 g/ha",4
same,Velvetleaf plant response rating,velvetleaf; [6],4
same,"Plant response rating, Velvetleaf",velvetleaf; [7],5
same,B. signalgrass plant response rating,surinam grass; [1],0
same,B. signalgrass plant response rating,surinam grass; [2],0
same,"Plant response rating, B. signalgrass",surinam grass; [3],9
same,"Plant response rating, B. signalgrass",surinam grass; [4],0
same,B. signalgrass plant response rating,surinam grass; [5],0
same,"B. signalgrass plant response rating (0 to 10 scale, 0 is no effect, 10 is complete control)","surinam grass; Preemergence, Rate 250 g/ha",2
same,"Plant response rating, B. signalgrass",surinam grass; [7],2
same,"Plant response rating, Nutsedge",purple nutsedge; [3],0
same,"Plant response rating, Nutsedge",purple nutsedge; [4],0
same,Nutsedge plant response rating,purple nutsedge; [5],0
same,Nutsedge plant response rating (0 to 10 scale),"purple nutsedge; Preemergence, Rate 250 g/ha",0
same,Nutsedge plant response rating,purple nutsedge; [6],4
